# Reference: patent US20030211457A1, “Methods and kits for testing mutagenicity” (Transgenomic, Inc., priority 2002, published 2003)
# Values joined by “and” are separate entries in the source; they are usually repeats but may differ in a detail not shown here. Equal entries are not always repeated. Where two headings read alike, the source gives them in different places.
# How the values were obtained:
# [1] = system: TA 1535; details: TA1535, 1.5-hour exposure, plates incubated 2 days at 37° C., two columns of counts
# Experimental: For comparative purposes, Ames modified plate assay were performed. […] After the 1.5-hour exposure, the incubation was add to 2 ml of melted top agar, containing limited histidine and biotin, equilibrated to 50° C. (MOLTOX catalog no. 26-503) and plated on minimal plates lacking histidine (MOLTOX catalog no.21-400). The plates were incubated 2 days at 37° C. and revertant colonies counted as shown:
# [2] = system: TA 1535; details: TA1535; azide levels 0.08, 0.2, 0.66, 2.0 and 6 ug; 1.5 hours at 37° C. then 18 hrs selective enrichment; no heteroduplex in vehicle control
# Experimental: Reactions were performed in sterile 1.5 ml microfuge tubes. Each tube contained: In a first stage incubation, 1 ul of overnight culture of TA 1535; 6.5 ul LB; 15 ul H2O (or S9); 67.5 ul M9 (−histidine+biotin). These four components are added from a master mix to the microfuge tubes. […] The mixture was incubated 1.5 hours at 37° C. The lids of the tubes were closed, but ventilated by piercing with a needle, for aeration. In a second stage incubation, 800 ul of Selective Enrichment Media was added, and the mixture is incubated for 18 hrs without shaking.
# Selective Enrichment Media was prepared in a final volume of 900 ml as follows:
# The media was autoclaved and cooled to room temperature. 90 ml of autoclaved 20% glucose was added. Prior to use, Biotin (Sigma) was added from a 400× stock (1.25M) to a final concentration of 1×.
# A 1 ul aliquot was used in a “Hot start” PCR amplification with a final denaturation/renaturation step followed by analysis by DHPLC. Each dose was processed in quadruplicate.
# For TA1535, the following 342 bp amplicon from the hisG gene was prepared:
# In the PCR, the forward primer was [sequence] (SEQ ID NO: 2) and the reverse primer was [sequence] (SEQ ID NO: 3). The DNA polymerase was Optimase™ polymerase. The PCR conditions were as follows: […]
compound,measurement,setting,value
[N-]=[N+]=[N-] [sodium azide],no. revertant colonies,[1]; NaN3 exposure amount 0.08 ug,3 and 5
same,no. revertant colonies,[1]; NaN3 exposure amount 0.2 ug,13
same,no. revertant colonies,[1]; NaN3 exposure amount 0.6 ug,15 and 27
same,no. revertant colonies,[1]; NaN3 exposure amount 2 ug,39 and 66
same,no. revertant colonies,[1]; NaN3 exposure amount 6 ug,>100
same,DNA back-mutation at the hot spot (heteroduplex by DHPLC),[2],caused DNA back-mutation at the hot spot
